# Experimental data taken from patent US20250171459A1, “2-METHYL-4',5'-DIHYDROSPIRO[PIPERIDINE-4,7'-THIENO[2,3-C]PYRAN] DERIVATIVES AS INHIBITORS OF APOL1 AND METHODS OF USING SAME” (Vertex Pharmaceuticals Incorporated, priority 2022, published 2025).
# Target: T1, APOL1 (Homo sapiens, UniProt O14791)
# T1 sequence (O14791 1-398 S342G/I384M): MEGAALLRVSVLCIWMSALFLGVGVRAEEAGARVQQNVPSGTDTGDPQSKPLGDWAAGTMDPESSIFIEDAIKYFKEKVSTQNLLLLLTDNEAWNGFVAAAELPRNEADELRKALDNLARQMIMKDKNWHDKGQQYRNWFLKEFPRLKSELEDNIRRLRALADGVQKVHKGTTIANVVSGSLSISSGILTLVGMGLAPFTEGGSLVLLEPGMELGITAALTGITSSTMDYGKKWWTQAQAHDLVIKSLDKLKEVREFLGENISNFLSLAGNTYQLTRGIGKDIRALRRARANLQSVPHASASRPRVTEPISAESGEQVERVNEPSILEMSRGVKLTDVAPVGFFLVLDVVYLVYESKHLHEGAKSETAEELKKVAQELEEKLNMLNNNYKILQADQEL
# Test: MultiTox-Fluor Multiplex Cytotoxicity Assay in tet-inducible APOL1 T-REx-HEK293 cells (cell rescue, ratio of dead to live cells)
# Assay type: cell-based
# Conditions: tet-inducible transgenic APOL1 T-REx-HEK293 cell lines, 50 ng/mL tet, 24 hours; read-out: IP50 (i.e., IC50 for cell proliferation)
# Procedure, shortened: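 T-REx-HEK293 cells with tet-inducible APOL1 were treated with compound (10 μM top, 10-point 3-fold dilution, duplicate) plus 50 ng/mL tetracycline for 24 h at 37° C, in DMEM with 2% tet-free FBS. MultiTox-Fluor protease signals gave a dead/live ratio, normalized to no tet (100% viability) and tet alone (0%).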
row,SMILES,IC50 [nM]
1,CCc1cc2c(s1)CCO[C@@]21CCN(CC(O)CO)[C@@H](C)C1 (stereo partly shown) [Compound 281],100 to 500
2,C[C@H]1C[C@@]2(CCN1Cc1ccc3c(c1)n(C)c(=O)n3C)OCCc1cc(Cl)sc12 [Compound 664],< 100
3,CNC(=O)[C@@H](O)Cn1cc(CN2CC[C@]3(C[C@@H]2C)OC[C@@H](O)c2cc(C(F)(F)F)sc23)cn1 [Compound 997],< 100
4,C[C@H]1C[C@@]2(CCN1Cc1cnc(N3CCOCC3)nc1)OCCc1c2sc(Cl)c1CO [Compound 728],< 100
5,C[C@H]1C[C@@]2(CCN1C[C@H]1C[C@@H](NC(=O)C3CC3)C1)OCCc1cc(CC(F)F)sc12 [Compound 556],< 100
6,CCc1cc2c(s1)CCO[C@@]21CCN(Cc2cn(Cc3cnccn3)nn2)[C@@H](C)C1 [Compound 38],100 to 500
7,COc1cc(OCC(N)=O)ccc1CN1CC[C@@]2(C[C@H]1C)OCCc1cc(Cl)sc12 [Compound 655],< 100
8,"C[C@H]1C[C@@]2(CCN1Cc1cnn(CCS(C)(=O)=O)c1)OCC(O)(C(F)(F)F)c1cc(Cl)sc12 (stereo partly drawn) [Compound 852, (2′S,7R)-2-chloro-2′-methyl-1′-[[1-(2-methylsulfonylethyl)pyrazol-4-yl]methyl]-4-(trifluoromethyl)spiro[5H-thieno[2,3-c]pyran-7,4′-piperidine]-4-ol]",< 100
9,COc1ncc(CN2CC[C@]3(C[C@@H]2C)OCCc2c3sc(Cl)c2CO)cn1 [Compound 729],< 100
10,CCc1cc2c(s1)CCO[C@@]21CCN(C[C@H]2C[C@@H](NS(=O)(=O)c3cccs3)C2)[C@@H](C)C1 [Compound 405],< 100
11,CCc1cc2c(s1)CCO[C@@]21CCN(CC2CN(C(=O)c3ccccc3)C2)[C@@H](C)C1 [Compound 431],< 100
12,"CCc1cc2c(s1)CCOC21CCN(Cc2cnn(C)c2)C(C)(C)C1 (stereo not shown) [Compound 498, 2-ethyl-2′,2′-dimethyl-1′-[(1-methylpyrazol-4-yl)methyl]spiro[6,7-dihydrothieno[3,2-c]pyran-4,4′-piperidine]]",500 to 1000
13,CCc1cc2c(s1)CCOC21CCN(Cc2cn[nH]c2)CC1 [Compound 1133],100 to 500
14,CCc1cc2c(s1)CCO[C@@]21CCN(Cc2cnc(N[C@H]3CC[C@H](O)C3)nc2)[C@@H](C)C1 [Compound 204],< 100
15,C[C@H]1C[C@@]2(CCN1CCC(F)(F)F)OCCc1cc(CC(F)F)sc12 [Compound 582],500 to 1000
16,C[C@H]1C[C@@]2(CCN1Cc1ccc3c(c1)n(C)c(=O)n3C)OCCc1c2sc(C(F)(F)F)c1CO [Compound 877],< 100
17,C[C@H](O)CN1CC[C@]2(C[C@@H]1C)OCCc1sc(Cl)cc12 [Compound 507],100 to 500
18,CCc1cc2c(s1)CCO[C@@]21CCN(CC2CN(C(=O)C(=O)c3cnc[nH]3)C2)[C@@H](C)C1 [Compound 482],< 100
19,C[C@H]1C[C@@]2(CCN1CC(F)F)OCCc1cc(CC(F)F)sc12 [Compound 616],500 to 1000
20,COCCc1ncc(CN2CC[C@]3(C[C@@H]2C)OCCc2cc(Cl)sc23)cn1 [Compound 640],100 to 500
21,COc1ccc(CN2CC[C@]3(C[C@@H]2C)OCCc2cc(Cl)sc23)cn1 [Compound 662],< 100
22,C[C@H]1C[C@@]2(CCN1Cc1ccncc1F)OCCc1c2sc(Cl)c1CO [Compound 735],500 to 1000
23,C[C@H]1C[C@@]2(CCN1C[C@@H](O)CO)OCCc1cc(CC(F)F)sc12 [Compound 598],100 to 500
24,COc1ccc(CN2CC[C@]3(C[C@@H]2C)OCCc2cc(Cl)sc23)cc1OCC(N)=O [Compound 657],< 100
25,C[C@H]1C[C@@]2(CCN1Cc1cnn(C[C@H](O)C(N)=O)c1)OC[C@@H](O)c1cc(C(F)(F)F)sc12 [Compound 996],< 100

row,SMILES,IC50 [nM]
1,CCc1cc2c(s1)CCO[C@@]21CCN(Cc2cnc(N[C@H]3CCCC[C@@H]3O)nc2)[C@@H](C)C1 [Compound 209],< 100
2,Cc1cncc(N2CCC(CN3CC[C@]4(C[C@@H]3C)OCCc3c4sc(Cl)c3CO)CC2)n1 [Compound 731],500 to 1000
3,C[C@H]1C[C@@]2(CCN1Cc1cn(CCS(C)(=O)=O)nn1)OCCc1c2sc(C(F)(F)F)c1C(=O)NCC1CC1 [Compound 1008],500 to 1000
4,CCCC(O)Cn1cc(CN2CC[C@]3(C[C@@H]2C)OCCc2sc(CC)cc23)nn1 (stereo partly shown) [Compound 85],< 100
5,CCc1cc2c(s1)CCO[C@@]21CCN(CC2CN(C(=O)c3cc(CO)n[nH]3)C2)[C@@H](C)C1 [Compound 479],< 100
6,"CCc1cc2c(s1)CCO[C@@]21CCN(C[C@H]2C[C@@H](NC(=O)COCC(F)(F)F)C2)[C@@H](C)C1 [Compound 301, N-[3-[[(2′S,4R)-2-ethyl-2′-methyl-spiro[6,7-dihydrothieno[3,2-c]pyran-4,4′-piperidine]-1′-yl]methyl]cyclobutyl]-2-(2,2,2-trifluoroethoxy)acetamide]",100 to 500
7,C[C@H]1C[C@@]2(CCN1Cc1cnn(CC(O)C3(O)CCOC3)c1)OC[C@@H](O)c1cc(C(F)(F)F)sc12 (stereo partly shown) [Compound 971],< 100
8,CCc1cc2c(s1)CCOC21CCN(Cc2cn(CC(O)c3ccccn3)nn2)C(C)C1 (stereo not shown) [Compound 76],100 to 500
9,CCc1cc2c(s1)CCOC21CCN(Cc2csc(-c3cccnc3)n2)CC1 [Compound 1139],500 to 1000
10,CCc1cc2c(s1)CCO[C@@]21CCN(CC2CN(C(=O)c3cccc(CO)c3)C2)[C@@H](C)C1 [Compound 428],< 100
11,C[C@H]1C[C@@]2(CCN1Cc1ccc(OCCO)cc1)OCCc1cc(Cl)sc12 [Compound 644],< 100
12,CCc1cc2c(s1)CCO[C@@]21CCN(Cc2cn(CC(O)CN3CCOCC3)nn2)[C@@H](C)C1 (stereo partly shown) [Compound 191],< 100
13,CCc1cc2c(s1)CCO[C@@]21CCN(Cc2cnc(NCc3ccc(O)cn3)nc2)[C@@H](C)C1 [Compound 206],< 100
14,CCc1cc2c(s1)CCOC21CCN(Cc2ccc(C(=O)NC3CC(O)C3)nc2)CC1 (stereo not shown) [Compound 1055],< 100
15,CCc1cc2c(s1)CCO[C@@]21CCN(Cc2cn(CCn3ccnc3)nn2)[C@@H](C)C1 [Compound 31],100 to 500
16,C[C@H]1C[C@@]2(CCN1CCO)OCCc1sc(Cl)cc12 [Compound 506],100 to 500
17,C[C@H]1C[C@@]2(CCN1Cc1cnn(CC(O)CO)c1)OCCc1c2sc(C(F)(F)F)c1CO (stereo partly shown) [Compound 934],< 100
18,CCc1cc2c(s1)CCO[C@@]21CCN(Cc2cn(CC(CO)OC)nn2)[C@@H](C)C1 (stereo partly shown) [Compound 139],< 100
19,CCc1cc2c(s1)CCO[C@@]21CCN(Cc2cn(C(C)c3nncn3CCOC)nn2)[C@@H](C)C1 (stereo partly shown) [Compound 163],500 to 1000
20,Cc1ccc(CN2CC[C@]3(C[C@@H]2C)OCCc2cc(Cl)sc23)c(C)n1 [Compound 675],100 to 500
21,"CNC(=O)[C@@H](O)CN1CC[C@]2(C[C@@H]1C)OCCc1cc(Cl)sc12 [Compound 710, (2S)-3-[(2′S, 7R)-2-chloro-2′-methyl-spiro[4,5-dihydrothieno[2,3-c]pyran-7,4′-piperidine]-1′-yl]-2-hydroxy-N-methyl-propanamide]",500 to 1000
22,C[C@H]1C[C@@]2(CCN1Cc1ccc(O)nc1)OC[C@H](O)c1cc(Cl)sc12 [Compound 791],< 100
23,CCc1cc2c(s1)CCOC21CCN(Cc2cn(CC3(O)CCOC3)nn2)C(C)C1 (stereo not shown) [Compound 77],500 to 1000
24,CCc1cc2c(s1)CCOC21CCN(Cc2cnn(C(C)=O)c2)CC1 [Compound 1135],100 to 500
